Residues, ends and D or L forms follow the SMILES beside them. *: point of attachment. Cbz = O=C(OCc1ccccc1)*; CH2F = FC*
Legend:
Assay type in all cases: cell-based, human
[1] = system: Cama-1 cells; assay: Apoptosis by annexin V staining and flow cytometry; details: Cama-1; for effect on Poly IC induced apoptosis: 5 μg/ml Poly IC; for percentage of apoptotic cells: 5 μg/ml Poly IC or 25 ng/ml TNF-α
Method: (§1) Cell recovery after treatment with TLR ligands was measured by crystal violet staining (Sigma-Aldrich). Cells were plated at 10^4 cells/well in 96 well plates. After 72 hours of culture either with or without TLR ligand, the cells were washed with PBS, fixed in 6% formaldehyde (Sigma-Aldrich) for 20 minutes, washed twice, and then stained with 0.1% crystal violet for 10 minutes. After washes and incubation in 1% SDS for 1 hour, the absorbance was read at 605 nm on a Vmax plate reader (Molecular Devices, Sunnyvale, Calif.). Annexin V staining was performed with an annexin-FITC apoptosis detection kit (BD Pharmingen, San Diego, Calif.) according to the manufacturer's instructions. Sub-diploid cells were detected by staining with 3 μg/mL propidium iodide (PI) (Molecular probes, Eugene, Oreg.), after overnight permeabilization in 70% ethanol. Fluorescence was analyzed by flow cytometry on a FACScalibur (Becton Dickinson, Mountain View, Calif.) equipped with a doublet-discrimination module and using Celiquest Pro software (Becton Dickinson).
Cama-1 cells were plated in 6 well plates at 3×10^5 cells per well. After overnight adherence, siRNA transfections were performed for 5 hours in OptiMEM medium (Life technologies) containing 3 μg/mL lipofectamine 2000 (Invivogen) and 100 nM siRNA. Cells were then washed and cultured for 72 hours in complete medium before treatment with Poly IC and apoptosis analysis. siRNA duplexes specific for TLR3, PKR, IRAK-4, TRAF6 and p65 were purchased from Dharmacon (Lafayette, Colo.) as SMART-Pools. TRIF siRNA was purchased from the same supplier as single oligoduplexes (5′-GCUCUUGUAUCUGMGCAC-3′) (SEQ ID NO: 23). TLR3 and TRIF expression was assessed by PCR (35 cycles: 1 min 94° C., 1 min 55° C., 2 min 72° C.) with Taq PCR ReadyMix (Sigma-Aldrich) using following primers: […]
To further investigate the effect of Poly IC treatment on breast tumor cell lines, cell death was analyzed in Cama-1 cells by annexin V staining. Cells were cultured for 24 hours either with or without 5 μg/ml of Poly IC. Apoptosis was measured by annexin V staining and flow cytometry.
We also tried to determine the kinetics of Poly IC induced apoptosis. Cama-1 cells were cultured either with or without 5 μg/ml or 50 ng/ml of Poly IC. The percentage of apoptotic (annexin positive) cells in the culture were measured during the following 30 hours. […] Specifically, Poly IC triggered apoptosis in Cama-1 cells beginning 9 hours after Poly IC addition and reaching up to 80% apoptotic cells after 30 hours of treatment.
Poly AU was analyzed for its effects on apoptosis. Cama-1 cells were cultured for 48 hours either with PBS or with increasing concentrations of Poly AU ranging from 5 ng/ml to 50 μg/ml. Apoptosis was analyzed by measuring the percentage of annexin V positive cells.
In order to determine the pathway of Poly IC induced Cama-1 cell toxicity, RNA interference was used to efficiently downregulate expression of TRIF and PKR. Cama-1 cells were plated in 6 well plates at 3×10^5 cells per well. After overnight adherence, siRNA transfections were performed for 5 hours in OptiMEM medium (Life technologies) containing 3 μg/mL lipofectamine 2000 (Invivogen) and 100 nM siRNA. Cells were transfected with either MOCK (water), control scrambled duplex (scr) siRNA, TRIF siRNA or PKR siRNA.
72 hours after siRNA transfection, Cama-1 cells were cultured for another 24 hours either with or without 5 μg/ml Poly IC. Apoptosis was measured by annexin V staining and expressed as a percentage of apoptotic cells in culture. On average, 10% of control cells (MOCK and scr) that were untreated underwent apoptosis. In contrast, about 75% of control cells (MOCK and scr) that were treated with Poly IC underwent apoptosis.
To further investigate TLR3 mediated cytotoxicity, the involvement of the signaling molecules IRAK4 and TRAF6, both downstream mediators of TLR signaling, were assessed. Cama-1 cells were plated in 6 well plates at 3×10^5 cells per well. […]

[2] = system: Cama-1, SW527, BT483 and MCF-7; assay: Cell recovery by crystal violet staining, four breast tumor cell lines together; details: 72 h, 5 μg/ml PGN; for effect on cell recovery of any of the four breast cancer cell lines: 10 μg/ml LPS, 50 ng/ml flagellin, 6 μg/ml R848, 10 μg/ml CpG ODNs; for cell recovery, percent of control, on average: 50 μg/ml Poly IC or 10 μg/ml LPS, average of the four cell lines
Method: as §1
Four human breast tumor cell lines, Cama-1, SW527, BT483 and MCF-7, were analyzed for cell death in response to Poly IC. Cells were cultured for 72 hours with 5 μg/ml PGN, 50 μg/ml Poly IC or 10 μg/ml LPS. Control cells were cultured with PBS. Cytotoxicity was assessed by crystal violet staining and expressed as a percent of control.
Furthermore, additional TLR ligands were tested to determine any possible effects on cellular toxicity. The ligands tested were PGN, LPS, Flagellin, R848 and CpG. Cells were cultured for 72 hours with 5 μg/ml PGN, 10 μg/ml LPS, 50 ng/ml flagellin, 6 μg/ml R848, 10 μg/ml CpG ODNs, or with PBS as control. Cell recovery was assessed by crystal violet staining and expressed as a percent of control.

[3] = system: IL-8; assay: IL-8 secretion by breast cancer cell lines; details: certain cell lines
[4] = system: TLR3 mRNA; assay: TLR3 mRNA expression by RT-PCR in Cama-1 cells; details: 48 h, 5 μg/ml, agent alone
Method: Cama-1 cells were analyzed for TLR3 mRNA expression in response to Poly IC. Cama-1 cells were cultured in complete medium (DMEM F12 containing […] glucose and complemented with 2 mM L-glutamine, 10% fetal calf serum, 160 μg/mL gentalline, 2.5 mg/mL sodium bicarbonate) for 48 hours either alone or with LPS (5 μg/ml) and/or with Poly IC (5 μg/ml). The mRNA from each group of cells was extracted. The mRNA was then reverse-transcribed and PCR amplified for 35 cycles (as above in Example 1) with hTLR3 specific primers: TLR3F: […] (SEQ ID NO: 5) and TLR3R: […] (SEQ ID NO: 6). TLR3 mRNA could not be amplified from resting Cama-1 cells.
Amplified DNA from RT-PCR using hTLR3 specific primers was run on a gel.

C[C@@H]1C[C@@H]([C@H](O)CC2CC(=O)NC(=O)C2)C(=O)[C@@H](C)C1 [CHX, Cycloheximide]
effect on TNF-α induced apoptosis ([1]; 25 ng/ml TNF-α, annexin V): significantly sensitized Cama-1 cells to TNF-α induced apoptosis | effect on Poly IC induced apoptosis ([1]; annexin V): partially protected the cells against Poly IC induced apoptosis

CCOCc1nc2c(N)nc3ccccc3c2n1CC(C)(C)O [R848]
effect on cell recovery of any of the four breast cancer cell lines [2]: None of those ligands significantly reduced cell recovery

COC(=O)C[C@H](NC(=O)[C@H](C)NC(=O)[C@@H](NC(=O)OCc1ccccc1)C(C)C)C(=O)CF [z-VAD-fmk] (Cbz-Val-Ala-Asp(OMe)-CH2F)
effect on Poly IC induced apoptosis ([1]; annexin V): greatly reduced Poly IC induced apoptosis

Flagellin
effect on cell recovery of any of the four breast cancer cell lines [2]: None of those ligands significantly reduced cell recovery

Peptidoglycan [PGN]
secretion of IL-8 [3]: induced secretion of IL-8 in certain cell lines | effect on cell recovery of any of the four breast cancer cell lines [2]: None of those ligands significantly reduced cell recovery | cell recovery, percent of control, on average [2]: 95%

TNF-α
percentage of apoptotic cells ([1]; 25 μM z-VAD-fmk pre-incubation 1 h, 24 h): 10% | percentage of apoptotic cells ([1]; DMSO pre-incubation 1 h, 24 h): 40% | percentage of apoptotic cells ([1]; absence of antibody (Example 12)): 40% | percentage of apoptotic cells ([1]; pre-incubated with 10 μg/ml CHX, untreated 15%): 70% | percentage of apoptotic cells ([1]; pre-incubated with 20 μg/ml neutralizing anti TNF-α mAb): 10%

lipopolysaccharide [LPS]
TLR3 mRNA expression [4]: did not affect TLR3 mRNA expression | effect on cell recovery of any of the four breast cancer cell lines [2]: None of those ligands significantly reduced cell recovery | cell recovery, percent of control, on average [2]: 95%

polyadenylic-polyuridylic acid [Poly AU]
apoptosis (annexin V positive cells) ([1]; 48 h, 5 ng/ml to 50 μg/ml Poly AU): triggers apoptosis

Source: patent US20060147456A1, “Induction of apoptosis in toll-like receptor expressing tumor cells” (priority 2004, published 2006)
